The test system of data set [1] is Th1- and Th2-related chemokines. As to conditions: upon stimulation; Kuo et al. 2019; cited from earlier work.
Data set [2] deals with IL-8 levels and neutrophil accumulation and activation. As to conditions: refractory asthma patients; Simpson et al. 2008; cited from earlier work.
For data set [3], the system named is liver transaminases AST and ALT. As to the kind of experiment: Liver transaminases AST/ALT after rAAV-Luc, tapering prednisone and tetracycline (Example 3). The class given is in vivo, piglets. The following applies: tetracycline 5-50 mg/kg/day, alone or with tapering prednisone from 25 mg/kg.
Method: The effect of antibiotic treatment on rAAV particle-induced toxicity is examined by measuring levels of endogenous cytokines and liver transaminases e.g., AST and ALT in animals injected with rAAV-Luc particles operably encoding luciferase nucleic acid.
Female piglets (n=5) are pretreated with 25 mg/kg/day prednisolone 24 hours prior to rAAV8-luc (2×10^12 particles of rAAV-Luc particles) administration and then continued for 4 weeks. Then each week the prednisone is tapered by 5 mg/kg until no prednisone and continued for 15 weeks post AAV administration (2×10^12 particles per piglet). Tetracycline is then administered at 15 mg/kg/day for 16-24 weeks. Small amounts of blood are collected aseptically obtained through the jugular vein at 2 hrs, 4 hrs, 1 day, 3 days, 10 days, 21 days, 4 weeks, 8 weeks, 15 weeks, 24 weeks post-rAAV-Luc treatment, post-rAAV-Luc treatment, and serum is isolated.
Data set [4] deals with liver enzymes AST and ALT. As to the kind of experiment: Liver transaminases AST/ALT after rAAV-Luc, tetracycline pretreatment (Example 2). The class given is in vivo, piglets. As to conditions: 25 mg/kg/day tetracycline i.v. 4 hours prior to 2×10^12 particles rAAV-Luc. How it is done: (§1) The effect of antibiotic pretreatment on the rAAV particle-induced toxicity e.g., inflammatory response and liver enzyme levels (e.g., toxicity) is examined by measuring levels of endogenous cytokines and liver enzymes AST and ALT in animals injected with rAAV8-Luc particles operably encoding luciferase nucleic acid.
(§2) Female piglets (n=5) are injected intravenously with either PBS alone (antibiotic control) or 25 mg/kg/day tetracycline in PBS 4 hours prior to intravenous administration of PBS alone (viral control) or 2×10^12 particles of rAAV-Luc vector. Small amounts of blood are collected aseptically obtained through the jugular vein at 30 minutes, 60 minutes, 90 minutes, 120 minutes, 1 day, 3 days, 10 days, 21 days, 28 days, 42 days, 60 days post-rAAV-Luc treatment, and serum is isolated. The serum is then analyzed for an inflammatory cytokine profile using the BD™ Cytometric Bead Array Mouse Inflammation Kit (BD™ CBA Mouse Inflammation Kit, BD Biosciences), specifically measuring levels of IL-2, IL-6, IL-7, IL-10, MCP-I, IFNγ, IP-10 and MIG. Liver transaminases e.g., AST and ALT are also measured at the above mentioned timepoints.

The subject of data set [5] is IL-2, IL-6, IL-7, IL-10, MCP-I, IFNγ, IP-10 and MIG. The data set can be described thus: Serum inflammatory cytokine profile after rAAV-Luc, tetracycline pretreatment (Example 2). The class given is in vivo, piglets. How it is done:
as §1, §2

As to `CC[C@H]1OC(=O)[C@H](C)[C@@H](O[C@H]2C[C@@](C)(OC)[C@@H](O)[C@H](C)O2)[C@H](C)[C@@H](O[C@@H]2O[C@H](C)C[C@H](N(C)C)[C@H]2O)[C@](C)(O)C[C@@H](C)CN(C)[C@H](C)[C@@H](O)[C@]1(C)O` [Azithromycin], the “effect on Th1- and Th2-related chemokines” value in data set [1] was “suppress Th1- and Th2-related chemokines”.

`CC[C@H]1OC(=O)[C@H](C)[C@@H](O[C@H]2C[C@@](C)(OC)[C@@H](O)[C@H](C)O2)[C@H](C)[C@@H](O[C@@H]2O[C@H](C)C[C@H](N(C)C)[C@H]2O)[C@](C)(OC)C[C@@H](C)C(=O)[C@H](C)[C@@H](O)[C@]1(C)O` [clarithromycin, Clarithromycin]: the “effect on IL-8 levels and neutrophil accumulation and activation” value in data set [2] is “modulate IL-8 levels and Neutophil accumulation and activation”.

For `CN(C)[C@@H]1C(O)=C(C(N)=O)C(=O)[C@@]2(O)C(O)=C3C(=O)c4c(O)cccc4[C@@](C)(O)[C@H]3C[C@@H]12` [tetracycline, Tetracycline], the “AST/ALT levels vs control piglets” value in data set [3] is recorded as “decreased significantly”. Further, the “AST/ALT ratio with time” value in data set [4] is on record as “less than 1”. The “inflammatory response (cytokine levels) resulting from rAAV-Luc vs antibiotic control” value in data set [5] (25 mg/kg/day tetracycline i.v. 4 hours prior to 2×10^12 particles rAAV-Luc i.v.) is “significantly reduce”. The “inflammatory response, tetracycline followed by PBS alone” value in data set [5] (25 mg/kg/day tetracycline i.v., no vector) is recorded as “no inflammatory response”.

Values taken from patent US20230149428A1, “METHOD OF TREATING GENE THERAPY ASSOCIATED TOXICITY WITH ANTIBIOTICS” (Asklepios BioPharmaceutical, Inc., priority 2020, published 2023).
